Results from the supplement of paper PMC11424490.

Experiments:
SW837 = experiment: combination cScore with adagrasib (Bliss gap around IC50) (%PoC); higher = stronger additive effect
Experimental: (§1)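 Combination screen of 179 inhibitors with the KRAS G12C inhibitor adagrasib (MRTX849) in dose matrices, CellTiter-Glo readout in NCI-H2122 (72 h), SW837 (144 h) and NCI-H358 cells. The cScore is the mean Bliss-independence gap (expected minus observed viability, in %PoC) over a 3x3 field around the IC50s of both drugs. Positive means additive, and >~10 is stated as clear additive.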

NCI-H2122 = experiment: as above
Experimental: as §1

SMILES	combination cScore with adagrasib (SW837)	combination cScore with adagrasib (NCI-H2122)
CC(C)(C(=O)NCC(F)(F)C(F)(F)F)C(=O)N[C@@H]1C(=O)Nc2ccccc2-c2ccccc21 + C=C(F)C(=O)N1CCN(c2nc(OC[C@@H]3CCCN3C)nc3c2CCN(c2cccc4cccc(Cl)c24)C3)C[C@@H]1CC#N [adagrasib]	9.86	6.57
CN(C)CCCC(=O)Nc1n[nH]c2nnc(-c3ccccc3)cc12 + C=C(F)C(=O)N1CCN(c2nc(OC[C@@H]3CCCN3C)nc3c2CCN(c2cccc4cccc(Cl)c24)C3)C[C@@H]1CC#N [adagrasib]	-2.5	-12.3
COc1ccc(Cn2ccc3ccc(C(=O)NO)cc32)cc1 + C=C(F)C(=O)N1CCN(c2nc(OC[C@@H]3CCCN3C)nc3c2CCN(c2cccc4cccc(Cl)c24)C3)C[C@@H]1CC#N [adagrasib]	1.45	2.01
COc1ccc2nc3ccc(OC)cc3c(SCCCN)c2c1 + C=C(F)C(=O)N1CCN(c2nc(OC[C@@H]3CCCN3C)nc3c2CCN(c2cccc4cccc(Cl)c24)C3)C[C@@H]1CC#N [adagrasib]	-2.24	7.77
C[C@@H](Oc1cc(-c2cnn(C3CCNCC3)c2)cnc1N)c1c(Cl)ccc(F)c1Cl + C=C(F)C(=O)N1CCN(c2nc(OC[C@@H]3CCCN3C)nc3c2CCN(c2cccc4cccc(Cl)c24)C3)C[C@@H]1CC#N [adagrasib]	12.7	6.58
NC(=O)c1ccc(-c2nc(-c3ccccn3)c(-c3ccc4c(c3)OCO4)[nH]2)cc1 + C=C(F)C(=O)N1CCN(c2nc(OC[C@@H]3CCCN3C)nc3c2CCN(c2cccc4cccc(Cl)c24)C3)C[C@@H]1CC#N [adagrasib]	-9.94	0.05
NC(=O)c1cnc(N[C@@H]2CCCC[C@@H]2N)nc1Nc1cccc(-n2nccn2)c1 + C=C(F)C(=O)N1CCN(c2nc(OC[C@@H]3CCCN3C)nc3c2CCN(c2cccc4cccc(Cl)c24)C3)C[C@@H]1CC#N [adagrasib]	3.74	11.8
O=[N+]([O-])c1ccc(NCCNc2ncc(-c3ncc[nH]3)c(-c3ccc(Cl)cc3Cl)n2)nc1 + C=C(F)C(=O)N1CCN(c2nc(OC[C@@H]3CCCN3C)nc3c2CCN(c2cccc4cccc(Cl)c24)C3)C[C@@H]1CC#N [adagrasib]	5.65	-12.7
On1ncc2cc(CCc3nn[nH]n3)ccc21 + C=C(F)C(=O)N1CCN(c2nc(OC[C@@H]3CCCN3C)nc3c2CCN(c2cccc4cccc(Cl)c24)C3)C[C@@H]1CC#N [adagrasib]	-2.04	7.37
c1ccc(-c2nn3c(c2-c2ccnc4cc(OCCN5CCOCC5)ccc24)CCC3)nc1 + C=C(F)C(=O)N1CCN(c2nc(OC[C@@H]3CCCN3C)nc3c2CCN(c2cccc4cccc(Cl)c24)C3)C[C@@H]1CC#N [adagrasib]	0.67	-21.2
CC1(C)CCC(CN2CCN(c3ccc(C(=O)NS(=O)(=O)c4ccc(NCC5CCOCC5)c([N+](=O)[O-])c4)c(Oc4cnc5[nH]ccc5c4)c3)CC2)=C(c2ccc(Cl)cc2)C1 [ABT-199] + C=C(F)C(=O)N1CCN(c2nc(OC[C@@H]3CCCN3C)nc3c2CCN(c2cccc4cccc(Cl)c24)C3)C[C@@H]1CC#N [adagrasib]	-3.71	3.14
CO[C@H]1/C=C/C[C@H](C)[C@@H](C)S(=O)(=O)NC(=O)c2ccc3c(c2)N(C[C@@H]2CC[C@H]21)C[C@@]1(CCCc2cc(Cl)ccc21)CO3 [AMG176] + C=C(F)C(=O)N1CCN(c2nc(OC[C@@H]3CCCN3C)nc3c2CCN(c2cccc4cccc(Cl)c24)C3)C[C@@H]1CC#N [adagrasib]	-0.8	5.81
COc1cc(OC2CCN(C)CC2)ccc1Nc1ncc2c(n1)n(C1CCCC1)c(=O)n2C [AZ3146] + C=C(F)C(=O)N1CCN(c2nc(OC[C@@H]3CCCN3C)nc3c2CCN(c2cccc4cccc(Cl)c24)C3)C[C@@H]1CC#N [adagrasib]	9.79	-1.25
Cc1cc(Nc2nc(N[C@@H](C)c3ncc(F)cn3)ncc2Cl)[nH]n1 [AZD-1480] + C=C(F)C(=O)N1CCN(c2nc(OC[C@@H]3CCCN3C)nc3c2CCN(c2cccc4cccc(Cl)c24)C3)C[C@@H]1CC#N [adagrasib]	1.14	3.87
NC(=O)Nc1cc(-c2cccc(F)c2)sc1C(=O)N[C@H]1CCCNC1 [AZD-7762] + C=C(F)C(=O)N1CCN(c2nc(OC[C@@H]3CCCN3C)nc3c2CCN(c2cccc4cccc(Cl)c24)C3)C[C@@H]1CC#N [adagrasib]	-2.72	-0.23
COc1cc2cc(c1Cl)N(C)C(=O)C[C@H](OC(=O)C(C)C)[C@]1(C)O[C@@H]1[C@H](C)[C@@H]1C[C@@](O)(NC(=O)O1)[C@H](OC)/C=C/C=C(\C)C2 [Ansamitocin P3] + C=C(F)C(=O)N1CCN(c2nc(OC[C@@H]3CCCN3C)nc3c2CCN(c2cccc4cccc(Cl)c24)C3)C[C@@H]1CC#N [adagrasib]	2.67	-2.93
Cc1ncc([N+](=O)[O-])n1CCOC(=O)NC(Nc1ncccn1)C(Cl)(Cl)Cl (stereo not given) [Apcin] + C=C(F)C(=O)N1CCN(c2nc(OC[C@@H]3CCCN3C)nc3c2CCN(c2cccc4cccc(Cl)c24)C3)C[C@@H]1CC#N [adagrasib]	-0.93	2.71
Nc1ncn([C@@H]2O[C@H](CO)[C@@H](O)[C@H]2O)c(=O)n1 [Azacitidine] + C=C(F)C(=O)N1CCN(c2nc(OC[C@@H]3CCCN3C)nc3c2CCN(c2cccc4cccc(Cl)c24)C3)C[C@@H]1CC#N [adagrasib]	9.12	-1.39
CCN1CCN(c2ccc(Nc3cc(N(C)C(=O)Nc4c(Cl)c(OC)cc(OC)c4Cl)ncn3)cc2)CC1 [BGJ398] + C=C(F)C(=O)N1CCN(c2nc(OC[C@@H]3CCCN3C)nc3c2CCN(c2cccc4cccc(Cl)c24)C3)C[C@@H]1CC#N [adagrasib]	3.09	-3.17
O=C(Cc1ccccc1)Nc1nnc(CCSCCc2nnc(NC(=O)Cc3ccccc3)s2)s1 [BPTES] + C=C(F)C(=O)N1CCN(c2nc(OC[C@@H]3CCCN3C)nc3c2CCN(c2cccc4cccc(Cl)c24)C3)C[C@@H]1CC#N [adagrasib]	7.09	8.57
Nc1nc(Nc2ccc3c(c2)CC[C@@H](N2CCCC2)CC3)nn1-c1cc2c(nn1)-c1ccccc1CCC2 [Bemcentinib] + C=C(F)C(=O)N1CCN(c2nc(OC[C@@H]3CCCN3C)nc3c2CCN(c2cccc4cccc(Cl)c24)C3)C[C@@H]1CC#N [adagrasib]	-0.26	-0.08
C=C(c1ccc(C(=O)O)cc1)c1cc2c(cc1C)C(C)(C)CCC2(C)C [Bexarotene] + C=C(F)C(=O)N1CCN(c2nc(OC[C@@H]3CCCN3C)nc3c2CCN(c2cccc4cccc(Cl)c24)C3)C[C@@H]1CC#N [adagrasib]	0.535	-4.01
CC(O)(CS(=O)(=O)c1ccc(F)cc1)C(=O)Nc1ccc(C#N)c(C(F)(F)F)c1 (stereo not given) [Bicalutamide] + C=C(F)C(=O)N1CCN(c2nc(OC[C@@H]3CCCN3C)nc3c2CCN(c2cccc4cccc(Cl)c24)C3)C[C@@H]1CC#N [adagrasib]	2.23	4.44
CO[C@H]1CC[C@H](n2c([C@@H]3CCCC(=O)N3c3ccc(F)c(F)c3)nc3cc(-c4c(C)noc4C)ccc32)CC1 [CCS1477] + C=C(F)C(=O)N1CCN(c2nc(OC[C@@H]3CCCN3C)nc3c2CCN(c2cccc4cccc(Cl)c24)C3)C[C@@H]1CC#N [adagrasib]	7.35	-1.66
O=C(O)CCCCC(CCSCc1ccccc1)SCc1ccccc1 (stereo not given) [CPI-613] + C=C(F)C(=O)N1CCN(c2nc(OC[C@@H]3CCCN3C)nc3c2CCN(c2cccc4cccc(Cl)c24)C3)C[C@@H]1CC#N [adagrasib]	1.41	-5.48
CCCCCOC(=O)Nc1nc(=O)n([C@@H]2O[C@H](C)[C@@H](O)[C@H]2O)cc1F [Capecitabin] + C=C(F)C(=O)N1CCN(c2nc(OC[C@@H]3CCCN3C)nc3c2CCN(c2cccc4cccc(Cl)c24)C3)C[C@@H]1CC#N [adagrasib]	2.14	-6.31
C[C@H](CS)C(=O)N1CCC[C@H]1C(=O)O [Captopril] + C=C(F)C(=O)N1CCN(c2nc(OC[C@@H]3CCCN3C)nc3c2CCN(c2cccc4cccc(Cl)c24)C3)C[C@@H]1CC#N [adagrasib]	-3.8	-0.24
O=C(O)C1(C(=O)O)CCC1.[NH2-].[NH2-].[Pt+2] [Carboplatin] + C=C(F)C(=O)N1CCN(c2nc(OC[C@@H]3CCCN3C)nc3c2CCN(c2cccc4cccc(Cl)c24)C3)C[C@@H]1CC#N [adagrasib]	-6.32	-1.99
COc1cc2c(Oc3ccc4[nH]c(C)cc4c3F)ncnc2cc1OCCCN1CCCC1 [Cediranib] + C=C(F)C(=O)N1CCN(c2nc(OC[C@@H]3CCCN3C)nc3c2CCN(c2cccc4cccc(Cl)c24)C3)C[C@@H]1CC#N [adagrasib]	-0.83	-4.17
N.N.[Cl][Pt][Cl] [Cisplatin] + C=C(F)C(=O)N1CCN(c2nc(OC[C@@H]3CCCN3C)nc3c2CCN(c2cccc4cccc(Cl)c24)C3)C[C@@H]1CC#N [adagrasib]	-1.26	-1.07
